What was measured:
BACE1 = molecular target: T1, BACE1 (Homo sapiens, UniProt P56817); assay: Cellular Aβ-lowering assay (Aβ40 ELISA); type: cell-based; settings: HEK293 cells stably expressing human APP695; Aβ40 in culture supernatant; read-out: BACE1 cell act. Aβ40 IC50
T1 construct: Human HEK293 cells which are stably transfected with a vector expressing a cDNA of the human APP wt gene (APP695); endogenous in cells; host or cells: HEK293 stably transfected with human APP695 wt
Protocol: Cellular Aβ-Lowering Assay:
Human HEK293 cells which are stably transfected with a vector expressing a cDNA of the human APP wt gene (APP695) were used to assess the potency of the compounds in a cellular assay. The cells were seeded in 96-well microtiter plates in cell culture medium (Iscove, plus 10% (v/v) fetal bovine serum, glutamine, penicillin/streptomycin) to about 80% confluence and the compounds were added at a 10× concentration in 1/10 volume of medium without FCS containing 8% DMSO (final concentration of DMSO was kept at 0.8% v/v). After 18-20 hrs incubation at 37° C. and 5% CO2 in a humidified incubator the culture supernatant was harvested for the determination of Aβ40 concentrations. […] Subsequently the wells of the microtiter plate were washed extensively with Tris-buffered saline containing 0.05% Tween 20 and the assay was developed with tetramethylbenzidine/H2O2 in citric acid buffer. After stopping the reaction with one volume 1 NH2SO4 the reaction was measured in an ELISA reader at 450 nm wavelength. The concentrations of Aβ in the culture supernatants were calculated from a standard curve obtained with known amounts of pure Aβ peptide.

BACE2 = molecular target: T2, BACE2 (Rattus norvegicus, UniProt Q6IE75); assay: Assay for BACE inhibition by measuring cellular TMEM27 cleavage; type: cell-based; settings: INS-TMEM27 cells (INS1e-derived); shed TMEM27 by ELISA; read-out: BACE2 cell act. IC50
T2 construct: endogenous cellular BACE2 in the Ins1e rat cell line; endogenous in cells; host or cells: INS-TMEM27 (INS1e-derived rat cell line with TetOn-inducible full-length hTMEM27)
T2 sequence (Q6IE75 63-514): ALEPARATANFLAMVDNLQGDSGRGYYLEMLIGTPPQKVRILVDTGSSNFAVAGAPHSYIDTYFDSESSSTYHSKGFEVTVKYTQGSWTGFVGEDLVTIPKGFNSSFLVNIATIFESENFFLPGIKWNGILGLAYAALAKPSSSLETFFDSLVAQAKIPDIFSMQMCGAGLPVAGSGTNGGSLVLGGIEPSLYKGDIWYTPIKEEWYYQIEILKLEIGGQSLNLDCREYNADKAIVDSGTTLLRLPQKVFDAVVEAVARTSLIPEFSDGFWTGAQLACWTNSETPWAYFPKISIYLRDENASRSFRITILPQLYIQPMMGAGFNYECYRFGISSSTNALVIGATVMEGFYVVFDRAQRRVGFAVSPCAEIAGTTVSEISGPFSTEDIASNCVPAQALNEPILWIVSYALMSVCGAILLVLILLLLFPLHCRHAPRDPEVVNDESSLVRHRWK
From the text: Assay for BACE Inhibition by Measuring Cellular TMEM27 Cleavage:
The assay uses the principle of inhibition of human TMEM27 cleavage by endogenous cellular BACE2 in the Ins1e rat cell line and shedding from the cell surface into the culture medium, followed by detection in an ELISA assay. Inhibition of BACE2 prevents the cleavage and shedding in a dose-dependent manner.
The stable cell line “INS-TMEM27” represents an INS1e-derived cell line with inducible expression (using the TetOn system) of full-length hTMEM27 in a doxycycline-dependent manner. The cells are cultured throughout the experiment in RPMI1640+Glutamax (Invitrogen) Penicillin/Streptomycin, 10% Fetal bovine serum, […] pyruvate, […] beta-mercatptoethanol, 100 micrograms/ml G418 and 100 microgram/ml hygromycin and are grown inadherent culture at 37° C. in a standard CO2 cell culture incubator. INS-TMEM27 cells are seeded in 96-well plates. After 2 days in culture, BACE2 inhibitor is added in a range of concentrations as required by the assay and after a further two hours, doxycycline is added to a final concentration of 500 ng/ml. The cells are incubated for a further 46 hours and the supernatant harvested for detection of shed TMEM27.
An ELISA assay (using a pair of mouse anti-human-TMEM27 antibodies, raised against the extracellular domain of TMEM27) is used for detection of TMEM27 in the culture medium. An EC50 for BACE2 inhibition is calculated using the ELISA readout for each inhibitor concentration with standard curve-fitting software such as XLFit for the Excel spreadsheet program.

T1 sequence (P56817 46-501): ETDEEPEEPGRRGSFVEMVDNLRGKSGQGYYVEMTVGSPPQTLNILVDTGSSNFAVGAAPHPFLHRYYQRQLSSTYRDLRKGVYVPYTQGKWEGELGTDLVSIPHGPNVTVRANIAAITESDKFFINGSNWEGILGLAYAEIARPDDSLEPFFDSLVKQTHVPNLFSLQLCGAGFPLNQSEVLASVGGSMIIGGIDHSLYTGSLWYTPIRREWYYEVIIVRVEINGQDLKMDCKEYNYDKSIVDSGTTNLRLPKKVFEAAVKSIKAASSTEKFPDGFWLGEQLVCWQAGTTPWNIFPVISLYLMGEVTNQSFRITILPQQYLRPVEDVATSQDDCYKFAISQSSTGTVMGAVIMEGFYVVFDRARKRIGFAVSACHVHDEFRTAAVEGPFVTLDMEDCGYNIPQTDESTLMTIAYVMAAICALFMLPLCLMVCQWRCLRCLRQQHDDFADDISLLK

Structure (SMILES)	IC50 (BACE1) [nM]	IC50 (BACE2) [nM]
CC1(C)OC(N)=N[C@](C)(c2cc(NC(=O)c3ccc(Cl)nn3)ccc2F)C1(F)F [Example 37, 6-Chloro-pyridazine-3-carboxylic acid [3-((R)-2-amino-5,5-difluoro-4,6,6-trimethyl-5,6-dihydro-4H-[1,3]oxazin-4-yl)-4-fluoro-phenyl]-amide]	710	50700
C[C@]1(c2cc(NC(=O)c3ncc(F)cc3Cl)ccc2F)N=C(N)OCC1(F)F [Example 7, 3-Chloro-5-fluoro-pyridine-2-carboxylic acid [3-((R)-2-amino-5,5-difluoro-4-methyl-5,6-dihydro-4H-[1,3]oxazin-4-yl)-4-fluoro-phenyl]-amide]	41	49
C[C@]1(c2cc(NC(=O)c3cnc(C(F)(F)F)cn3)ccc2F)N=C(N)OCC1(F)F [Example 17, 5-Trifluoromethyl-pyrazine-2-carboxylic acid [3-((R)-2-amino-5,5-difluoro-4-methyl-5,6-dihydro-4H-[1,3]oxazin-4-yl)-4-fluoro-phenyl]-amide]	86	1220
C[C@]1(c2cc(NC(=O)c3ccc(OCC(F)(F)C(F)(F)F)cn3)ccc2F)N=C(N)OCC1(F)F [Example 44, 5-(2,2,3,3,3-Pentafluoro-propoxy)-pyridine-2-carboxylic acid [3-((R)-2-amino-5,5-difluoro-4-methyl-5,6-dihydro-4H-[1,3]oxazin-4-yl)-4-fluoro-phenyl]-amide]	290	14500
C[C@]1(c2cc(NC(=O)c3ccc(OC(F)F)cn3)ccc2F)N=C(N)OCC1(F)F [Example 41, 5-Difluoromethoxy-pyridine-2-carboxylic acid [3-((R)-2-amino-5,5-difluoro-4-methyl-5,6-dihydro-4H-[1,3]oxazin-4-yl)-4-fluoro-phenyl]-amide]	11	855
Cc1cn[nH]c1C(=O)Nc1ccc(F)c([C@@]2(C)N=C(N)OCC2(F)F)c1 [Example 66, 4-Methyl-2H-pyrazole-3-carboxylic acid [3-((R)-2-amino-5,5-difluoro-4-methyl-5,6-dihydro-4H-[1,3]oxazin-4-yl)-4-fluoro-phenyl]-amide]	622	465
C[C@]1(c2cc(NC(=O)c3ccc(C#N)cn3)ccc2Cl)N=C(N)OCC1(F)F [Example 51, 5-Cyano-pyridine-2-carboxylic acid [3-((R)-2-amino-5,5-difluoro-4-methyl-5,6-dihydro-4H-[1,3]oxazin-4-yl)-4-chloro-phenyl]-amide]	20	327
C[C@]1(c2cc(NC(=O)c3ncc(C(F)(F)F)cn3)ccc2F)N=C(N)OCC1(F)F [Example 16, 5-Trifluoromethyl-pyrimidine-2-carboxylic acid [3-((R)-2-amino-5,5-difluoro-4-methyl-5,6-dihydro-4H-[1,3]oxazin-4-yl)-4-fluoro-phenyl]-amide]	91	1540
C[C@@](O)(C(=O)Nc1ccc(F)c([C@@]2(C)N=C(N)OCC2(F)F)c1)C(F)(F)F [Example 76, (R)—N-[3-((R)-2-Amino-5,5-difluoro-4-methyl-5,6-dihydro-4H-[1,3]oxazin-4-yl)-4-fluoro-phenyl]-3,3,3-trifluoro-2-hydroxy-2-methyl-propionamide 2,2,2-trifluoroacetate]	1050	1420
Cc1cc(Cl)cnc1C(=O)Nc1ccc(F)c([C@@]2(C)N=C(N)OCC2(F)F)c1 [Example 13, 5-Chloro-3-methyl-pyridine-2-carboxylic acid [3-((R)-2-amino-5,5-difluoro-4-methyl-5,6-dihydro-4H-[1,3]oxazin-4-yl)-4-fluoro-phenyl]-amide]		24
C[C@]1(c2cc(NC(=O)c3ccc(OCF)cn3)ccc2F)N=C(N)OCC1(F)F [Example 42, 5-Fluoromethoxy-pyridine-2-carboxylic acid [3-((R)-2-amino-5,5-difluoro-4-methyl-5,6-dihydro-4H-[1,3]oxazin-4-yl)-4-fluoro-phenyl]-amide]	29	300
C[C@]1(c2cc(NC(=O)c3ncccc3OCC(F)(F)F)ccc2F)N=C(N)OCC1(F)F [Example 54, 3-(2,2,2-Trifluoro-ethoxy)-pyridine-2-carboxylic acid [3-((R)-2-amino-5,5-difluoro-4-methyl-5,6-dihydro-4H-[1,3]oxazin-4-yl)-4-fluoro-phenyl]-amide]	635	245
C[C@]1(c2cc(NC(=O)c3ncccc3Cl)ccc2F)N=C(N)OCC1(F)F [Example 3, 3-Chloro-pyridine-2-carboxylic acid [3-((R)-2-amino-5,5-difluoro-4-methyl-5,6-dihydro-4H-[1,3]oxazin-4-yl)-4-fluoro-phenyl]-amide]	87	52
C[C@]1(c2cccc(NC(=O)c3ccc(Cl)cn3)c2)N=C(N)OCC1(F)F [Example 52, 5-Chloro-pyridine-2-carboxylic acid [3-((R)-2-amino-5,5-difluoro-4-methyl-5,6-dihydro-4H-[1,3]oxazin-4-yl)-phenyl]-amide]	9	35
Cn1ccc(C(=O)Nc2ccc(F)c([C@@]3(C)N=C(N)OCC3(F)F)c2)n1 [Example 63, 1-Methyl-1H-pyrazole-3-carboxylic acid [3-((R)-2-amino-5,5-difluoro-4-methyl-5,6-dihydro-4H-[1,3]oxazin-4-yl)-4-fluoro-phenyl]-amide]	110	113
Cc1nc(C(=O)Nc2ccc(F)c([C@@]3(C)N=C(N)OCC3(F)F)c2)co1 [Example 58, 2-Methyl-oxazole-4-carboxylic acid [3-((R)-2-amino-5,5-difluoro-4-methyl-5,6-dihydro-4H-[1,3]oxazin-4-yl)-4-fluoro-phenyl]-amide]	15	25
Cn1cc(Cl)c(C(=O)Nc2ccc(F)c([C@@]3(C)N=C(N)OCC3(F)F)c2)n1 [Example 18, 4-Chloro-1-methyl-1H-pyrazole-3-carboxylic acid [3-((R)-2-amino-5,5-difluoro-4-methyl-5,6-dihydro-4H-[1,3]oxazin-4-yl)-4-fluoro-phenyl]-amide]		15
C[C@]1(c2cc(NC(=O)c3ccc(F)cn3)ccc2F)N=C(N)OCC1(F)F [Example 2, 5-Fluoro-pyridine-2-carboxylic acid [3-((R)-2-amino-5,5-difluoro-4-methyl-5,6-dihydro-4H-[1,3]oxazin-4-yl)-4-fluoro-phenyl]-amide]		56
C[C@]1(c2cc(NC(=O)c3ccccn3)ccc2F)N=C(N)OCC1(F)F [Example 9, Pyridine-2-carboxylic acid [3-((R)-2-amino-5,5-difluoro-4-methyl-5,6-dihydro-4H-[1,3]oxazin-4-yl)-4-fluoro-phenyl]-amide]		82
C[C@]1(c2cc(NC(=O)c3ccn(C(F)F)n3)ccc2F)N=C(N)OCC1(F)F [Example 64, 1-Difluoromethyl-1H-pyrazole-3-carboxylic acid [3-((R)-2-amino-5,5-difluoro-4-methyl-5,6-dihydro-4H-[1,3]oxazin-4-yl)-4-fluoro-phenyl]-amide]		13
